How the values were obtained:
p70S6K = p70S6K (Homo sapiens, UniProt P23443); test: Luciferase-coupled chemiluminescence kinase assay (ATP consumption); type: biochemical; settings: Table 1; class symbols per key
Outline: (§1)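 Enzyme at 2.5-5 nM was preincubated 30 min at room temperature with compound in Tris pH 7.5, MgCl2, TX-100, DTT, then reacted with ATP for 3 h at ambient temperature. Remaining ATP was quantified by luciferase-luciferin chemiluminescence, with consumption kept at 25-60%; […].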

AktK = AktK (Homo sapiens, UniProt P31749); test: as above; type: biochemical; settings: Table 1; class symbols per key; read-out: AKT-1 IC50
Chain of AktK (P31749 whole entry): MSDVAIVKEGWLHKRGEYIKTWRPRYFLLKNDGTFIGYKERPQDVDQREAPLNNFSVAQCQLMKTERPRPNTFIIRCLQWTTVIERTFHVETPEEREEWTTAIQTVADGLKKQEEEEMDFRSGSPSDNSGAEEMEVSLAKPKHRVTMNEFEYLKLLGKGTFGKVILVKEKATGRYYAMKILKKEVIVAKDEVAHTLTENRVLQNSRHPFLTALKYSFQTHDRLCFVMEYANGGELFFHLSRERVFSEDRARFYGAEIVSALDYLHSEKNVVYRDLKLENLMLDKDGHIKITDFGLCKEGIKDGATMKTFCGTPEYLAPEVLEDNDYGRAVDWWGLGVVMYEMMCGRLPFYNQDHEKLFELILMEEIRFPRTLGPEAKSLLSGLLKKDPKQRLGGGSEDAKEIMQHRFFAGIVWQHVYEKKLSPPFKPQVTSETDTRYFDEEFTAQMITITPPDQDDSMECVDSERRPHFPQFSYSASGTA
Outline: as §1

Chain of p70S6K (P23443 whole entry): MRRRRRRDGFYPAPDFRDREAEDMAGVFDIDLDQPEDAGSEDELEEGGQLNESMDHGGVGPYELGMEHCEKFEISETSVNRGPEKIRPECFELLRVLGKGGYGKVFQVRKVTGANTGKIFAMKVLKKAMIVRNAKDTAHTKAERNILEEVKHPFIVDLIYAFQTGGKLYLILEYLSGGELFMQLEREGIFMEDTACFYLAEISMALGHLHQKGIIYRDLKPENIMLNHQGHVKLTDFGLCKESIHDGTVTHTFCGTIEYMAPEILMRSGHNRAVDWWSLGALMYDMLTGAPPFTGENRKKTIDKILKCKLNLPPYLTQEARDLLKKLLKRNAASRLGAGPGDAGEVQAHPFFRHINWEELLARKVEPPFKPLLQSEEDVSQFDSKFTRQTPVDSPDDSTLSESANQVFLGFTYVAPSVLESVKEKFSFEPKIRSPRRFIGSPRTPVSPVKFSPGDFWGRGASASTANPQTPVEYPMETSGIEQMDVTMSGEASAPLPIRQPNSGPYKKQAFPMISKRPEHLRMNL

Q: How did the IC50 (p70S6K) turn out when `Fc1cc(NCCN2CCCC2)c(Cl)c(N2CCN(c3ncnc4[nH]nc(Br)c34)CC2)c1` [Entry 129, 3-[4-(3-bromo-1H-pyrazolo[3,4-d]pyrimidin-4-yl)piperazin-1-yl]-2-chloro-5-fluoro-N-(2-pyrrolidin-1-ylethyl)aniline] was run?
A: < 0.1 µM

Q: What about the IC50 (AktK) of the same compound?
A: 0.1 to 1 µM

Q: Which IC50 (p70S6K) does the source give for `CCc1n[nH]c2ncnc(N3CCN(c4cc(F)cc(NCCN5CCCC5)c4Cl)CC3)c12` [Entry 130, 2-chloro-3-[4-(3-ethyl-1H-pyrazolo[3,4-d]pyrimidin-4-yl)piperazin-1-yl]-5-fluoro-N-(2-pyrrolidin-1-ylethyl)aniline] here?
A: < 0.1 µM

Q: What about the IC50 (AktK) of the same compound?
A: 1 to 10 µM

Q: What does the source list for `Fc1ccc(F)c(N2CCN(c3ncnc4[nH]nc(Br)c34)CC2)c1` [Entry 131, 3-bromo-4-[4-(2,5-difluorophenyl)piperazin-1-yl]-1H-pyrazolo[3,4-d]pyrimidine]?
A: IC50 (p70S6K): < 0.1 µM; IC50 (AktK): ≥ 10 µM

Q: For `CCc1n[nH]c2ncnc(N3CCN(c4cc(F)ccc4F)CC3)c12` [Entry 132, 4-[4-(2,5-difluorophenyl)piperazin-1-yl]-3-ethyl-1H-pyrazolo[3,4-d]pyrimidine], which IC50 (p70S6K) is on record?
A: 0.1 to 1 µM

Q: What about the IC50 (AktK) of the same compound?
A: ≥ 10 µM

Q: With `COc1nccnc1N1CCN(c2ncnc3[nH]nc(Br)c23)CC1` [Entry 133, 3-bromo-4-{4-[3-(methyloxy)pyrazin-2-yl]pipera-zin-1-yl}-1H-pyrazolo[3,4-d]pyrimidine] as the compound, how does the IC50 (p70S6K) read?
A: 0.1 to 1 µM

Q: What about the IC50 (AktK) of the same compound?
A: ≥ 10 µM

Q: What does the source list for `Clc1cccc(N2CCN(c3ncnc4[nH]nc(Br)c34)CC2)c1` [Entry 134, 3-bromo-4-[4-(3-chlorophenyl)piperazin-1-yl]-1H-pyrazolo[3,4-d]pyrimidine]?
A: IC50 (p70S6K): < 0.1 µM; IC50 (AktK): ≥ 10 µM

Q: Which results are given for `FC(F)(F)c1cccnc1N1CCN(c2ncnc3[nH]nc(Br)c23)CC1` [Entry 135, 3-bromo-4-{4-[3-(trifluoromethyl)pyridin-2-yl]piperazin-1-yl}-1H-pyrazolo[3,4-d]pyrimidine]?
A: IC50 (p70S6K): 0.1 to 1 µM; IC50 (AktK): ≥ 10 µM

Q: How did the IC50 (p70S6K) turn out when `FC(F)(F)c1cnc(N2CCN(c3ncnc4[nH]nc(Br)c34)CC2)c(Cl)c1` [Entry 136, 3-bromo-4-{4-[3-chloro-5-(trifluoromethyl)pyridin-2-yl]piperazin-1-yl}-1H-pyrazolo[3,4-d]pyrimidine] was run?
A: 1 to 10 µM

Q: And the IC50 (AktK)?
A: ≥ 10 µM

Q: Which results are given for `Cc1c(OCCN2CCCC2)cc(Cl)cc1N1CCN(c2ncnc3[nH]nc(C(C)C)c23)CC1` [Entry 137, 4-(4-{5-chloro-2-methyl-3-[(2-pyrrolidin-1-ylethyl)oxy]phenyl}piperazin-1-yl)-3-(1-methylethyl)-1H-pyrazolo[3,4-d]pyrimidine]?
A: IC50 (p70S6K): < 0.1 µM; IC50 (AktK): 1 to 10 µM

Q: With `Cc1c(NCCN2CCCC2)cc(Cl)cc1N1CCN(c2ncnc3[nH]nc(C(C)C)c23)CC1` [Entry 138, 5-chloro-2-methyl-3-{4-[3-(1-methylethyl)-1H-pyrazolo[3,4-d]pyrimidin-4-yl]piperazin-1-yl}-N-(2-pyrrolidin-1-ylethyl)aniline] as the compound, how does the IC50 (p70S6K) read?
A: < 0.1 µM

Q: And the IC50 (AktK)?
A: 1 to 10 µM

Q: With `CCNC(=O)COc1cccc(N2CCN(c3ncnc4[nH]nc(Br)c34)CC2)c1` [Entry 139, 2-({3-[4-(3-bromo-1H-pyrazolo[3,4-d]pyrimidin-4-yl)piperazin-1-yl]phenyl}oxy)-N-ethylacetamide] as the compound, how does the IC50 (p70S6K) read?
A: < 0.1 µM

Q: And the IC50 (AktK)?
A: 1 to 10 µM

Q: `Cc1cccc(COc2cccc(N3CCN(c4ncnc5[nH]nc(Br)c45)CC3)c2)c1` [Entry 141, 3-bromo-4-[4-(3-{[(3-methylphenyl)methyl]oxy}phenyl)piperazin-1-yl]-1H-pyrazolo[3,4-d]pyrimidine] was tested. Which IC50 (p70S6K) did it give?
A: 0.1 to 1 µM

Q: What about the IC50 (AktK) of the same compound?
A: ≥ 10 µM

Q: How did the IC50 (p70S6K) turn out when `Brc1n[nH]c2ncnc(N3CCN(c4cccc(OCCN5CCCCC5)c4)CC3)c12` [Entry 142, 3-bromo-4-(4-{3-[(2-piperidin-1-ylethyl)oxy]phenyl}piperazin-1-yl)-1H-pyrazolo[3,4-d]pyrimidine] was run?
A: 0.1 to 1 µM

Q: And the IC50 (AktK)?
A: 1 to 10 µM

Q: Which results are given for `Brc1n[nH]c2ncnc(N3CCN(c4nccc(-c5ccco5)n4)CC3)c12` [Entry 143, 3-bromo-4-[4-(4-furan-2-ylpyrimidin-2-yl)piperazin-1-yl]-1H-pyrazolo[3,4-d]pyrimidine]?
A: IC50 (p70S6K): 0.1 to 1 µM; IC50 (AktK): ≥ 10 µM

Reference: patent US8076338B2, “Kinase modulators and methods of use” (Exelixis, Inc., priority 2004, dated 2011)
